Assay [1] concerns fruits, vegetables, meat, chicken and salmon; yeast and/or bacteria. Kind of assay: Food preservation with 500 mg NaHS in closed container at room temperature (FIG. 10). The procedure:
Representative samples of foods shown include fruits, vegetables, meat, chicken and salmon. […] Foods and fruits were stored in closed containers. The containers were made of aluminum with a plastic lid that snugly fitted onto the container rim. […] Control group (Control) of foods and fruits were stored within the containers. The experimental group (Exp) of foods and fruits were placed in the same type of containers and 500 mg of NaHS was placed in a glass cup which was placed in one corner of the container of the Exp group. The containers were not sealed. Using a H2S gas detector capable of detecting 1 to 500 ppm of H2S, no H2S was detected outside the containers. The amount of gas within the Exp containers varied from 5-40 ppm during the course of exposure. […] Experiments were carried out at room temperature for the durations shown. […] There is small change in color, consistency, and of the same food group and there is no evidence of growth of yeast in the NaHS treated group. Strawberry 80. […] The fruit also lost its consistency and is discolored. […] Raspberry 82. Growth of yeast is seen by day 4 and is pronounced on day 6 (arrow 83) in the control group. The fruit also lost its consistency and is discolored. […] Blackberry 84. Growth of yeast is seen by day 4 which is pronounced by day 6 (arrow 85) in the control group. The fruit also lost its consistency and is discolored. […] Banana 86. Growth of yeast is seen by day 8 (arrow 87) in the control group. The fruit also lost its consistency and is discolored. […] Sprout 88. Growth of yeast and bacteria is seen by day 4 (arrow 89) in the control group. Sprout also lost its consistency and is discolored. […] Leek 90. The vegetable is discolored in the control group by day 3. […] Avocado 91. Avocado was either homogenized (top two rows) or cut into small 1×1 cm pieces (bottom two rows) and stored in the containers. […] Mushroom 92. Mushroom is discolored in the control group. […] Cantaloupe 93. Growth of yeast is seen by day 3 and is severe on day 4 (arrows 94) in the control group. The fruit also lost its consistency and is discolored. […] Red meat 95 (top), Chicken 96 (middle) and Salmon 97 (Bottom). The control container developed a foul smell on day 3 which was pronounced on day 4. Larvae developed on day 3 in the control group and flies were found on day 4 in the control group. […] Agar plate cultures, 98. Samples from each fruit were diluted in phosphate buffered saline, pH 7.4. From each sample, 20 microliters was streaked on agar plates and plates were maintained either at room temperature or at 37° C. Samples from control group yielded bacteria or yeast only from control group. To directly test growth of these bacteria and yeast in presence of NaHS, samples of bacteria and yeast were streaked on agar plates and then stored without or with NaHS. 50 mg of NaHS was placed in an aluminum chamber and these were inserted on both sides of the Exp Petri dishes. Petri dishes were placed at room temperature or at 37° C. Colonies of bacteria and yeast were evident in the control group on day 1 and coalesced by day 3 as shown in the representative cultures 98. […] No growth was found for up to 2 months following initiation of cultures.

Assay [2] concerns bacteria and yeast. Kind of assay: Agar plate cultures stored with 50 mg NaHS (FIG. 10, 98). The assay is classed as cell-based. The procedure: Representative samples of foods shown include fruits, vegetables, meat, chicken and salmon. […] Foods and fruits were stored in closed containers. The containers were made of aluminum with a plastic lid that snugly fitted onto the container rim. […] Control group (Control) of foods and fruits were stored within the containers. The experimental group (Exp) of foods and fruits were placed in the same type of containers and 500 mg of NaHS was placed in a glass cup which was placed in one corner of the container of the Exp group. The containers were not sealed. Using a H2S gas detector capable of detecting 1 to 500 ppm of H2S, no H2S was detected outside the containers. The amount of gas within the Exp containers varied from 5-40 ppm during the course of exposure. […] Experiments were carried out at room temperature for the durations shown. […] There is small change in color, consistency, and of the same food group and there is no evidence of growth of yeast in the NaHS treated group. Strawberry 80. […] The fruit also lost its consistency and is discolored. […] Raspberry 82. Growth of yeast is seen by day 4 and is pronounced on day 6 (arrow 83) in the control group. The fruit also lost its consistency and is discolored. […] Blackberry 84. Growth of yeast is seen by day 4 which is pronounced by day 6 (arrow 85) in the control group. The fruit also lost its consistency and is discolored. […] Banana 86. […]

The subject of assay [3] is freshly cut chips of cantaloupe. Kind of assay: NaHS solution fumigation of freshly cut chips of cantaloupe. As for the experimental part:
Aqueous NaHS solutions (0.25-3.5 mmol/L) could release H2S gas (10^−12˜10^−10 mol/L). H2S rapidly, reached to the highest levels within several minutes and maintained a constant concentration. […] The NaHS solution was renewed every 48 or 72 hours. The NaHS solution was placed in a sealed container separated by a partition board with pores on it. The fresh cut vegetables including Broccoli, Lettuce, Lotus Root, Yam, Pumpkin, Sweet Potato, Potato, etc, and the fresh cut fruits Apple, Pear, Kiwi Fruit, Tomato, Hami Melon, and Peach were placed above the board, while the NaHS solution was placed under the board. Therefore, the fresh cut vegetables and fruits were fumigated with H2S gas released from NaHS in the solution.
The control freshly cut chips of cantaloupe that were treated with water (0.0 mmol/L NaHS) lost their color and became brown, while the freshness of freshly cut chips of cantaloupe treated with 0.05 mmol/L-1.5 mmol/L NaHS solution was prolonged by 8-12 hours.

For the compound `S` [NaHS, sodium hydrosulfide], in assay [1] (500 mg NaHS, H2S 5-40 ppm in container, room temperature), the “food spoilage and growth of mold and/or bacteria” value is “prevents food spoilage and growth of mold and/or bacteria”. Besides, the discoloration entry in assay [1] (Avocado homogenized or cut pieces, day 3) is “maintained nearly the same color as that on day 1”; in assay [1] (Leek, day 3), “These changes are not seen in the Exp group”; in assay [1] (Mushroom), “These changes are less severe in the Exp group”. The “yeast growth, loss of consistency, discoloration” value is “These changes are not seen in the Exp group” in assay [1] (Banana, day 8); “These changes are not seen in the Exp group” in assay [1] (Blackberry, day 6); “These changes are not seen in the Exp group” in assay [1] (Cantaloupe, day 4); “These changes are not seen in the Exp group” in assay [1] (Raspberry, day 6); “These changes are not seen in the Exp group” in assay [1] (Strawberry, day 4). Further, in assay [1] (Red meat, Chicken and Salmon, day 4), the “discoloration, foul smell, larvae and flies” value is “Meat discolored in the Exp group on day 4 but there was no evidence of foul smell or flies”. The “growth of yeast and bacteria, loss of consistency, discoloration” value in assay [1] (Sprout, day 4) was “These changes are not seen in the Exp group”. The “time without growth following initiation of cultures” value in assay [2] is on record as “up to 2 months”. Besides, the “colonies of bacteria and yeast on agar plates” value in assay [2] (room temperature or 37° C., day 1-3) is reported as “no growth was evident”. The “freshness prolonged by” value in assay [3] (0.05 mmol/L-1.5 mmol/L NaHS) was 8 to 12 h; in assay [3] (0.9 mmol/L-1.0 mmol/L NaHS (best)), 12 h.

Values taken from patent US20140342065A1 (priority 2012, published 2014).
